Experimental data: ChEMBL document CHEMBL3352489, “6-Hydroxyquinolinium salts differing in the length of alkyl side-chain: synthesis and antimicrobial activity” (Bioorg Med Chem Lett, 2014)
pIC50: −log10 of the molar value.

Experiments:
[1] = Retention time of the compound by gradient elution based HPLC method; assay type: physicochemical
[2] = Retention time of the compound by isocratic elution based HPLC method; assay type: physicochemical
[3] = system: Candida albicans; test: Fungicidal activity against Candida albicans ATCC 44859 after 48 hrs by modified standard CSLI M27-A2 method; assay type: functional; details: ATCC 44859, 48 h
[4] = system: Staphylococcus aureus; test: Bactericidal activity against Staphylococcus aureus CCM 4516/08 after 48 hrs by microdilution broth method; assay type: functional; details: CCM 4516/08, 48 h, read-out: MBC>99.9
[5] = system: Nakaseomyces glabratus; test: Fungicidal activity against Candida glabrata 20/I after 48 hrs by modified standard CSLI M27-A2 method; assay type: functional
[6] = system: Pichia kudriavzevii; test: Antifungal activity against Candida krusei E28 after 48 hrs by modified standard CSLI M27-A2 method; assay type: functional; details: E28, 48 h
[7] = system: Candida tropicalis; test: microbe, parasite or virus in culture; assay type: functional; details: Candida tropicalis, 156, 48 h
Description: Antifungal activity against Candida tropicalis 156 after 48 hrs by modified standard CSLI M27-A2 method

[8] = system: Escherichia coli; test: Bactericidal activity against Escherichia coli CCM 4517 after 48 hrs by microdilution broth method; assay type: functional; details: CCM 4517, 48 h, read-out: MBC>99.9
[9] = system: Pichia kudriavzevii; test: Antifungal activity against Candida krusei E28 after 24 hrs by modified standard CSLI M27-A2 method; assay type: functional; details: E28, 24 h
[10] = system: Klebsiella pneumoniae; test: microbe, parasite or virus in culture; assay type: functional; details: D 11750/08, 48 h
Description: Antibacterial activity against Klebsiella pneumoniae D 11750/08 after 48 hrs by microdilution broth method

[11] = system: Trichophyton mentagrophytes; test: microbe, parasite or virus in culture; assay type: functional; details: Trichophyton mentagrophytes, 445, 120 h
Description: Antifungal activity against Trichophyton mentagrophytes 445 after 120 hrs by modified standard CSLI M27-A2 method

[12] = system: Staphylococcus aureus; test: microbe, parasite or virus in culture; assay type: functional; details: H 5996/08, 48 h
Description: Antibacterial activity against Staphylococcus aureus H 5996/08 after 48 hrs by microdilution broth method

[13] = system: Staphylococcus aureus; test: Bactericidal activity against Staphylococcus aureus H 5996/08 after 48 hrs by microdilution broth method; assay type: functional; details: H 5996/08, 48 h, read-out: MBC>99.9
[14] = system: Pseudomonas aeruginosa; test: microbe, parasite or virus in culture; assay type: functional; details: CCM 1961, 72 h
Description: Antibacterial activity against Pseudomonas aeruginosa CCM 1961 after 72 hrs by microdilution broth method

[15] = system: Pseudomonas aeruginosa; test: Bactericidal activity against Pseudomonas aeruginosa CCM 1961 after 120 hrs by microdilution broth method; assay type: functional; details: CCM 1961, 120 h, read-out: MBC>99.9
[16] = system: Klebsiella pneumoniae; test: microbe, parasite or virus in culture; assay type: functional; details: J 14368/08, 24 h
Description: Antibacterial activity against Klebsiella pneumoniae J 14368/08 after 24 hrs by microdilution broth method

[17] = system: Nakaseomyces glabratus; test: Antifungal activity against Candida glabrata 20/I after 48 hrs by modified standard CSLI M27-A2 method; assay type: functional
[18] = system: Klebsiella pneumoniae; test: Bactericidal activity against Klebsiella pneumoniae J 14368/08 after 48 hrs by microdilution broth method; assay type: functional; details: J 14368/08, 48 h, read-out: MBC>99.9
[19] = system: Enterococcus sp.; test: microbe, parasite or virus in culture; assay type: functional; details: J 14365/08, 24 h
Description: Antibacterial activity against Enterococcus sp. J 14365/08 after 24 hrs by microdilution broth method

[20] = system: Lichtheimia corymbifera; test: Fungicidal activity against Absidia corymbifera 272 after 48 hrs by modified standard CSLI M27-A2 method; assay type: functional; details: Lichtheimia corymbifera, 272, 48 h
[21] = system: Klebsiella pneumoniae; test: microbe, parasite or virus in culture; assay type: functional; details: J 14368/08, 48 h
Description: Antibacterial activity against Klebsiella pneumoniae J 14368/08 after 48 hrs by microdilution broth method

[22] = system: Trichophyton mentagrophytes; test: Fungicidal activity against Trichophyton mentagrophytes 445 after 120 hrs by modified standard CSLI M27-A2 method; assay type: functional; details: Trichophyton mentagrophytes, 445, 120 h
[23] = system: Staphylococcus aureus; test: microbe, parasite or virus in culture; assay type: functional; details: CCM 4516/08, 48 h
Description: Antibacterial activity against Staphylococcus aureus CCM 4516/08 after 48 hrs by microdilution broth method

[24] = system: Aspergillus fumigatus; test: Fungicidal activity against Aspergillus fumigatus 231 after 48 hrs by modified standard CSLI M27-A2 method; assay type: functional; details: Aspergillus fumigatus, 231, 48 h
[25] = system: Candida tropicalis; test: Fungicidal activity against Candida tropicalis 156 after 48 hrs by modified standard CSLI M27-A2 method; assay type: functional; details: Candida tropicalis, 156, 48 h
[26] = system: Lichtheimia corymbifera; test: microbe, parasite or virus in culture; assay type: functional; details: Lichtheimia corymbifera, 272, 24 h
Description: Antifungal activity against Absidia corymbifera 272 after 24 hrs by modified standard CSLI M27-A2 method

[27] = system: Aspergillus fumigatus; test: microbe, parasite or virus in culture; assay type: functional; details: Aspergillus fumigatus, 231, 24 h
Description: Antifungal activity against Aspergillus fumigatus 231 after 24 hrs by modified standard CSLI M27-A2 method

[28] = system: Escherichia coli; test: microbe, parasite or virus in culture; assay type: functional; details: CCM 4517, 24 h
Description: Antibacterial activity against Escherichia coli CCM 4517 after 24 hrs by microdilution broth method

[29] = system: Klebsiella pneumoniae; test: microbe, parasite or virus in culture; assay type: functional; details: D 11750/08, 24 h
Description: Antibacterial activity against Klebsiella pneumoniae D 11750/08 after 24 hrs by microdilution broth method

[30] = system: Nakaseomyces glabratus; test: Antifungal activity against Candida glabrata 20/I after 24 hrs by modified standard CSLI M27-A2 method; assay type: functional
[31] = system: Pichia kudriavzevii; test: Fungicidal activity against Candida krusei E28 after 48 hrs by modified standard CSLI M27-A2 method; assay type: functional; details: E28, 48 h
[32] = system: Staphylococcus aureus; test: microbe, parasite or virus in culture; assay type: functional; details: CCM 4516/08, 24 h
Description: Antibacterial activity against Staphylococcus aureus CCM 4516/08 after 24 hrs by microdilution broth method

[33] = system: Trichosporon asahii; test: microbe, parasite or virus in culture; assay type: functional; details: Trichosporon asahii, 1188, 48 h
Description: Antifungal activity against Trichosporon asahii 1188 after 48 hrs by modified standard CSLI M27-A2 method

[34] = system: Candida albicans; test: microbe, parasite or virus in culture; assay type: functional; details: ATCC 44859, 48 h
Description: Antifungal activity against Candida albicans ATCC 44859 after 48 hrs by modified standard CSLI M27-A2 method

[35] = system: Candida tropicalis; test: microbe, parasite or virus in culture; assay type: functional; details: Candida tropicalis, 156, 24 h
Description: Antifungal activity against Candida tropicalis 156 after 24 hrs by modified standard CSLI M27-A2 method

[36] = system: Aspergillus fumigatus; test: microbe, parasite or virus in culture; assay type: functional; details: Aspergillus fumigatus, 231, 48 h
Description: Antifungal activity against Aspergillus fumigatus 231 after 48 hrs by modified standard CSLI M27-A2 method

[37] = system: Escherichia coli; test: microbe, parasite or virus in culture; assay type: functional; details: CCM 4517, 48 h
Description: Antibacterial activity against Escherichia coli CCM 4517 after 48 hrs by microdilution broth method

[38] = system: Staphylococcus epidermidis; test: microbe, parasite or virus in culture; assay type: functional; details: H 6966/08, 24 h
Description: Antibacterial activity against Staphylococcus epidermidis H 6966/08 after 24 hrs by microdilution broth method

[39] = system: Trichosporon asahii; test: microbe, parasite or virus in culture; assay type: functional; details: Trichosporon asahii, 1188, 24 h
Description: Antifungal activity against Trichosporon asahii 1188 after 24 hrs by modified standard CSLI M27-A2 method

[40] = system: Staphylococcus aureus; test: microbe, parasite or virus in culture; assay type: functional; details: H 5996/08, 24 h
Description: Antibacterial activity against Staphylococcus aureus H 5996/08 after 24 hrs by microdilution broth method

[41] = system: Staphylococcus epidermidis; test: Bactericidal activity against Staphylococcus epidermidis H 6966/08 after 48 hrs by microdilution broth method; assay type: functional; details: H 6966/08, 48 h, read-out: MBC>99.9
[42] = system: Enterococcus sp.; test: Bactericidal activity against Enterococcus sp. J 14365/08 after 48 hrs by microdilution broth method; assay type: functional; details: J 14365/08, 48 h, read-out: MBC>99.9
[43] = system: Staphylococcus epidermidis; test: microbe, parasite or virus in culture; assay type: functional; details: H 6966/08, 48 h
Description: Antibacterial activity against Staphylococcus epidermidis H 6966/08 after 48 hrs by microdilution broth method

[44] = system: Trichosporon asahii; test: Fungicidal activity against Trichosporon asahii 1188 after 48 hrs by modified standard CSLI M27-A2 method; assay type: functional; details: Trichosporon asahii, 1188, 48 h
[45] = system: Lichtheimia corymbifera; test: microbe, parasite or virus in culture; assay type: functional; details: Lichtheimia corymbifera, 272, 48 h
Description: Antifungal activity against Absidia corymbifera 272 after 48 hrs by modified standard CSLI M27-A2 method

[46] = system: Enterococcus sp.; test: microbe, parasite or virus in culture; assay type: functional; details: J 14365/08, 48 h
Description: Antibacterial activity against Enterococcus sp. J 14365/08 after 48 hrs by microdilution broth method

[47] = Cytotoxicity against CHOK1 cells after 24 hrs by MTT assay; assay type: ADME, cell-based; details: Cricetulus griseus, CHO-K1, 24 h
[48] = system: Pseudomonas aeruginosa; test: microbe, parasite or virus in culture; assay type: functional; details: CCM 1961, 120 h
Description: Antibacterial activity against Pseudomonas aeruginosa CCM 1961 after 120 hrs by microdilution broth method

[49] = system: Trichophyton mentagrophytes; test: microbe, parasite or virus in culture; assay type: functional; details: Trichophyton mentagrophytes, 445, 72 h
Description: Antifungal activity against Trichophyton mentagrophytes 445 after 72 hrs by modified standard CSLI M27-A2 method

[50] = system: Candida albicans; test: microbe, parasite or virus in culture; assay type: functional; details: ATCC 44859, 24 h
Description: Antifungal activity against Candida albicans ATCC 44859 after 24 hrs by modified standard CSLI M27-A2 method

[51] = system: Klebsiella pneumoniae; test: Bactericidal activity against Klebsiella pneumoniae D 11750/08 after 24 hrs by microdilution broth method; assay type: functional; details: D 11750/08, 24 h, read-out: MBC>99.9

CCCCCCCCCC[n+]1cccc2cc(O)ccc21.[Br-]
8.64 min: Retention_time [1]
0.65 min: Retention_time [2]

CCCCCCCCCCCC[n+]1cccc2cc(O)ccc21.[Br-]
9.34 min: Retention_time [1]
15.6 µM: MFC [20] | MIC [45]
0.49 µM: MIC95 [32] | MIC95 [38] | MIC95 [40] | MBC [41] | MIC95 [43] | MIC [49]
0.95 min: Retention_time [2]
0.98 µM: MIC [6] | MIC [7] | MIC [9] | MIC [11] | MIC95 [19] | MFC [22] | MIC [30] | MIC [35] | MIC [39] | MIC [50]
1.95 µM: MFC [3] | MFC [5] | MBC [8] | MIC95 [10] | MIC95 [12] | MIC [17] | MIC95 [23] | MFC [25] | MIC [27] | MIC95 [28] | MIC95 [29] | MFC [31] | MIC [33] | MIC [34] | MIC95 [37] | MBC [42] | MFC [44] | MIC95 [46] | MBC [51]
3.91 µM: MIC95 [16] | MBC [18] | MIC95 [21] | MIC [26]
7.81 µM: MBC [4] | MBC [13] | MIC95 [14] | MBC [15] | MFC [24] | MIC [36] | MIC95 [48]
4.30: pIC50 [47]

CCCCCCCCCCCCCC[n+]1cccc2cc(O)ccc21.[Br-]
125 µM: MIC95 [14] | MFC [20]
0.98 µM: MIC95 [38] | MIC95 [43]
3.91 µM: MIC [17] | MIC [30] | MBC [41]
250 µM: MBC [15] | MFC [24] | MIC95 [48]
10.05 min: Retention_time [1]
4.49: pIC50 [47]
31.2 µM: MIC95 [16] | MIC95 [21] | MIC [26] | MIC95 [28] | MIC [33] | MIC [36] | MIC95 [37] | MFC [44] | MIC [45]
62.5 µM: MBC [8] | MIC95 [10] | MBC [18] | MIC95 [29] | MBC [51]
1.95 µM: MIC95 [19] | MIC95 [23] | MIC95 [32] | MIC95 [46]
15.6 µM: MFC [3] | MFC [5] | MIC [7] | MBC [13] | MFC [22] | MFC [25] | MIC [27] | MIC [34] | MIC [35] | MIC [39] | MBC [42]
1.65 min: Retention_time [2]
7.81 µM: MBC [4] | MIC [6] | MIC [9] | MIC [11] | MIC95 [12] | MFC [31] | MIC95 [40] | MIC [49] | MIC [50]

CCCCCCCCCCCCCCCC[n+]1cccc2cc(O)ccc21.[Br-]
3.91 µM: MIC [6] | MIC [9] | MIC [11] | MIC95 [12] | MBC [13] | MIC [17] | MIC95 [19] | MFC [22] | MIC [30] | MIC95 [40] | MBC [41] | MIC95 [46] | MIC [49]
0.98 µM: MIC95 [23] | MIC95 [32]
62.5 µM: MFC [3] | MFC [25] | MFC [44]
15.6 µM: MIC [27] | MIC [36]
500 µM: MBC [8] | MFC [20] | MIC95 [28] | MIC95 [37]
250 µM: MFC [24]
0.49 µM: MIC95 [38] | MIC95 [43]
125 µM: MFC [5] | MFC [31]
3.3 min: Retention_time [2]
10.77 min: Retention_time [1]
> 500 µM: MIC95 [10] | MIC95 [14] | MBC [15] | MIC95 [16] | MBC [18] | MIC95 [21] | MIC95 [29] | MIC95 [48] | MBC [51]
7.81 µM: MBC [4] | MIC [7] | MIC [26] | MIC [33] | MIC [34] | MIC [35] | MIC [39] | MBC [42] | MIC [45] | MIC [50]
4.70: pIC50 [47]

CCCCCCCCCCCCCCCCCC[n+]1cccc2cc(O)ccc21.[Br-]
7.06 min: Retention_time [2]
11.47 min: Retention_time [1]
